Experimental data: patent US20220117938A1, “COMBINATON THERAPY WITH A DON PRODRUG AND AN IMMUNE CHECKPOINT INHIBITOR” (DRACEN PHARMACEUTICALS, INC., priority 2019, published 2022)

Assays:
Cells = assay: Cell viability, CTG luminescence, 72 h (Example 7, Experiment 1); format: cell-based
Experimental: Cells were cultured in the appropriate medium at 37° C. and 5% CO2 atmosphere. Cells were harvested by trypsinization, spun at 800 rpm for 5 min and resuspended in medium. The cell concentration was adjusted with medium and seeded at a cell density of 3000 cells in 90 μL per well in 96-well plates, and incubated overnight at 37° C. and 5% CO2. After 24 hours, the 1 mM test compound (either Compound 1 or DON) was successively diluted into 7 concentrations according to a three-fold gradient respectively, and 10 μl/well drug was added. The final concentrations were 100 μM, 33.33 μM, 11.11 μM, 3.7 μM, 1.24 μM, 0.41 μM, 0.14 μM, and 0.046 μM. The 100 μM Positive Control drug was successively diluted in 7 concentrations according to a three-fold gradient, and 10 μl/well drug was added. The final concentrations were 10 μM, 3.333 μM, 1.111 μM, 0.37 μM, 0.124 μM, 0.041 μM, 0.014 μM and 0.0046 μM. Cells were incubated for 72 h at 37° C. and 5% CO2. 100 μL CTG reagent was then added to each well. Plates were shaken for 2 min and placed 10 min at room temperature. Luminescence was recorded on Perkin Elmer Envision 2104 Multilabel Reader. IC50's were obtained by fitting curve using GraphPad Prism5 software. In all cases the treatment time was 72 h.

HCT116 tumors = assay: Anti-tumor efficacy of Compound 1 in the HCT116 xenograft model (Example 12); format: in vivo, mice; conditions: Group 4, 1.4 mg/kg SC 5 d ON 2 d OFF x3 cycles
Experimental: Female BALB/c nude mice were inoculated subcutaneously in the right flank with HCT116 cells for tumor development. Nine days after tumor inoculation, mice with tumor sizes ranging from 90-260 mm^3 (average tumor size 155 mm^3) were selected and assigned into groups using stratified randomization with 8 mice per group based upon their tumor volumes. The treatments were started from the day of randomization (defined as D0), Group 1 was treated with Vehicle control, 10 ml/kg, IP, bid×21; Group 4 was treated with Compound 1, 1.4 mg/kg, SC, 5d ON, 2 d OFF×3 cycles; and Group 5 was treated with Compound 1, 3.3 mg/kg, IV, tiw, (Thu, Sat, Mon)×3 cycles. The tumor sizes were measured two times per week during the treatment. The entire study was terminated on D18 after start of the treatment. All treatments were well-tolerated without any adverse effects or significant body weight loss.

CC(=O)N[C@@H](Cc1c[nH]c2ccccc12)C(=O)N[C@@H](CCC(=O)C=[N+]=[N-])C(=O)OC(C)C [Compound 1, Isopropyl (S)-2-((S)-2-acetamido-3-(1H-indol-3-yl)propanamido)-6-diazo-5-oxohexanoate]
IC50 (Cells; AGS): 19.9 µM | IC50 (Cells; C3A): 8.39 µM | IC50 (Cells; Homo sapiens, 143B): 2.44 µM | IC50 (Cells; Homo sapiens, 769-P): 2.08 µM | IC50 (Cells; Homo sapiens, BT-474, 72 h, BT-474): 9.8 µM | IC50 (Cells; Homo sapiens, BT-549, 72 h, BT-549): 30.8 µM | IC50 (Cells; Homo sapiens, CAPAN-1, 72 h, Capan-1): 29.3 µM | IC50 (Cells; Homo sapiens, Daudi): 1.07 µM | IC50 (Cells; Homo sapiens, HCC1395, 72 h, HCC1395): 59.8 µM | IC50 (Cells; Homo sapiens, HCC1806, 72 h, HCC1806): 3.86 µM | IC50 (Cells; Homo sapiens, HCC1937, 72 h, HCC1937): 156 µM | IC50 (Cells; Homo sapiens, HCC1954, 72 h, HCC1954): 3.33 µM | IC50 (Cells; Homo sapiens, HGC-27, 72 h, HGC-27): 13.3 µM | IC50 (Cells; Homo sapiens, HL-60, 72 h, HL60): 2.03 µM | IC50 (Cells; Homo sapiens, Huh-7, 72 h, HuH-7): 1.27 µM | IC50 (Cells; Homo sapiens, Jurkat): 0.656 µM | IC50 (Cells; Homo sapiens, KARPAS-299, 72 h, KARPAS-299): 0.636 µM | IC50 (Cells; Homo sapiens, KATO III, KATO-III): 10.7 µM | IC50 (Cells; Homo sapiens, LN-18, 72 h, LN-18): 4.15 µM | IC50 (Cells; Homo sapiens, MDA-MB-231, 72 h, MDA-MB-231): 2.88 µM | IC50 (Cells; Homo sapiens, MDA-MB-361, 72 h, MDA-MB-361): 117 µM | IC50 (Cells; Homo sapiens, MDA-MB-435S): 45.4 µM | IC50 (Cells; Homo sapiens, MKN-45, 72 h, MKN-45): 1.65 µM | IC50 (Cells; Homo sapiens, MOLT-4, 72 h, MOLT-4): 3.03 µM | IC50 (Cells; Homo sapiens, Malme-3M): 19.9 µM | IC50 (Cells; Homo sapiens, NCI-H23, 72 h, NCI-H23): 3.53 µM | IC50 (Cells; Homo sapiens, NCI-H226, 72 h, NCI-H226): 14.5 µM | IC50 (Cells; Homo sapiens, NCI-H322M): 49.1 µM | IC50 (Cells; Homo sapiens, NCI-H358, 72 h, NCI-H358): 9.61 µM | IC50 (Cells; Homo sapiens, NCI-H661, 72 h, NCI-H661): 131 µM | IC50 (Cells; Homo sapiens, NCI-H929, 72 h, NCI-H929): 13.8 µM | IC50 (Cells; Homo sapiens, NCI-H1299, 72 h, NCI-H1299): 9.2 µM | IC50 (Cells; Homo sapiens, NCI-H1650, 72 h, NCI-H1650): 6.61 µM | IC50 (Cells; Homo sapiens, OVCAR-3, 72 h, OVCAR-3): 34.1 µM | IC50 (Cells; Homo sapiens, RPMI-7951, 72 h, RPMI-7951): 0.894 µM | IC50 (Cells; Homo sapiens, Raji): 3.13 µM | IC50 (Cells; Homo sapiens, SH-SY5Y): 9.1 µM | IC50 (Cells; Homo sapiens, SK-MES-1, 72 h, SK-MES-1): 71.5 µM | IC50 (Cells; Homo sapiens, SNB-19, 72 h, SNB-19): 3.21 µM | IC50 (Cells; Homo sapiens, SNU-449, 72 h, SNU-449): 38.6 µM | IC50 (Cells; Homo sapiens, SW480, 72 h, SW480): 88.1 µM | IC50 (Cells; Homo sapiens, T98G): 3.39 µM | IC50 (Cells; Homo sapiens, U-937, 72 h, U-937): 0.811 µM | IC50 (Cells; Homo sapiens, ZR-75-1, 72 h, ZR-75-1): 137 µM | IC50 (Cells; Homo sapiens, ZR-75-30, 72 h, ZR-75-30): 282 µM | IC50 (Cells; NAMALWA): 1.05 µM | IC50 (Cells; RKO): 3.64 µM | IC50 (Cells; T84): 125 µM | IC50 (Cells; TT): 77.1 µM | IC50 (Cells; U266B1): 0.451 µM | RTV at day 11 (HCT116 tumors): 4.061 ± 0.33 | Tumor Size at day 11 (HCT116 tumors): 602 ± 72 mm^3 | Tumor volume (HCT116 tumors; day 0): 155 ± 19 mm^3
